From US12168673B2 (Mitopower, Inc., priority 2022, dated 2024)

Experiments:
[1] = tested on: HepG2 cells; assay: Cellular NAD+ levels in HepG2 cells, NAD cycling assay; format: cell-based; details: for NAD+ level increase at the lowest concentration: HepG2, 10 μM
Method: HepG2 cells were seeded at densities of 1 million cells per well in a 6 well plate. The next day, cells were treated with test compounds for 4 hours and were harvested using the below protocol. Each well was washed once with 2 mL ice cold PBS which was removed and 400 μL 2M HClO4 (perchloric acid) was added to each well, which was scraped and the residue transferred to 1.5 mL tubes and spun down. 100 μL of the supernatant was transferred to a clean 1.5 mL vial and 150 μL KOH/MOPS 2M/0.6M (neutralization buffer) was added to each vial under vortex which was spun down. The pH was measured following the NAD cycling protocol.
NAD standards were prepared from 0 to 0.5 μM in water as per Table 7.
The cycling reaction was prepared as follows. 10 μl samples were added followed by water to bring the volume up to 25 μl. 25 μl of each standard was used in duplicates for the reaction. Then 50 μl of mix A (cycling mix) was added to the sample and standards. Mix A contained the following:
Reaction was initiated using 25 μL enzyme mix (15 U/ml of alcohol dehydrogenase+15 U/mL of malate dehydrogenase). The samples were incubated at 37° C. for 30 minutes in a water bath and the reaction terminated by heating in a water bath for 5 minutes at 80° C. Then 25 μl of the sample was used in the detection step. 100 μl mix B, which contains following components were added to the sample.
Reaction was initiated using a start reagent (prepared by mixing 10 μl of malate dehydrogenase and 10 μl of glutamate oxaloacetic transaminase in 1 ml of water. The reading were measured at 340 nm in a envision plate reader. The results are shown in FIGS. 4A-4D.

[2] = tested on: primary human hepatocytes; assay: NAD+ in primary human hepatocytes at 250 μM (Example 10); format: cell-based; details: four hours of incubation
Method: (§1) Cryopreserved primary human hepatocytes, sourced from Lonza were cultured and were seeded into 6 well dishes with 0.5 million cells per well. […] The cells were later spun down and extracted. The supernatant was tested via LCMS/MS for NAD^+.

[3] = tested on: human hepatocytes; assay: Human hepatocyte stability
Method: 10 mM stock solution of test compound was prepared in DMSO and diluted to a concentration of 1 mM with DMSO. Working concentration of 2 μM was prepared by further dilution with PBS. Preincubation mixture of 150 μL of hepatocyte cell suspension (1,000,000 cells/mL, INVITROGRO HT medium buffer), was added to vials for preincubation for 10 min @37° C.
150 μL of 2 μM working stock of the test compound was added to the cell suspension and incubated at @37 C at 500 rpm. The reaction was stopped at 0, 15, 30, 60 and 90 min by precipitating 50 μL of the incubation mixture with 150 μL of acetonitrile. Samples were vortexed for 5 min at 1200 rpm and centrifuged at 4000 rpm for 10 min. 150 μL of the supernatant was diluted with 150 μL of water and injected in MS system (SCIEX, API 4500 Q Trap) for analysis.

[4] = tested on: primary human hepatocytes; assay: NAD+ in primary human hepatocytes (Example 12); format: cell-based; details: 10 μM, four hours of incubation
Method: as §1

[5] = tested on: human hepatocytes; assay: Human hepatocyte clearance; format: in vitro ADME
Method: (§2) A hepatocyte vial was taken out from the liquid nitrogen tank and was thawed in a water bath maintained at 37° C. The thawed cell suspension was transferred into a torsion tube containing 50 mL of thawing media (Xenotech). The thawing media containing hepatocytes was centrifuged at 1000 rpm for 5 min, the supernatant was discarded and the pellet was resuspended in 2 ml of Xenotech OptiIncubate Media. The cells were counted by using a haemocytometer after mixing an aliquot of cell suspension with equal volume of trypan blue. The cell suspension was diluted to a working density of 2 million cells with DMEM media without FBS/incubation media.
(§3) The assay was performed in duplicates (n=2). 150 μL of 2 million cell working stock of hepatocyte cell suspension was added to a 24 well plate and incubated in a 37° C. incubator, with speed of 500 RPM for 10 min. 150 μL of 2 μM working stock of test compound was incubated separately. The reaction at 0, 15, 30, 60 and 90 min was stopped by precipitating 20 μL of incubation mixture with 200 μL of acetonitrile containing internal standard. […] The supernatant was separated and diluted 1:1 with water before injecting in LC-MS/MS analysis.

[6] = Human hepatocyte clearance; format: in vitro ADME; details: human hepatocytes, 1 μM; for half-life at 1 μM: 0-90 min, read-out: T½; for hepatocyte CLint at 1 μM: read-out: Intrinsic Clearance (CL Int)
Method: as §2, §3

| Structure (SMILES) | NAD+ level increase at the lowest concentration [1] | NAD+ level increase compared to untreated cells [2] | % Parent Remaining ([3]; 0 mins) | % Parent Remaining ([3]; 15 mins) | % Parent Remaining ([3]; 30 mins) | % Parent Remaining ([3]; 60 mins) | % Parent Remaining ([3]; 90 mins) | NAD+ level increase compared to untreated cells [4] | Remarks (clearance class) [5] | half-life at 1 μM [6] | hepatocyte CLint at 1 μM [6] | NAD+ level increase compared to nicotinic acid ([1]; HepG2, all concentrations (10-250 μM)) | clearance in human hepatocytes (in words) [3] |
| --- | --- | --- | --- | --- | --- | --- | --- | --- | --- | --- | --- | --- | --- |
| COC(=O)[C@@H](C)N[P@](=O)(OC[C@H]1OC(OC(=O)c2cccnc2)[C@H](O)[C@@H]1O)Oc1ccccc1 (single isomer, unassigned) [Compound 103] | statistically significant increase | statistically significant NAD^+ level increases | 100% | 63% | 40% | 15% | 5% | statistically significant NAD^+ level increases | High | 22.2 min | 31.3 µL/min/1e6 cells | – | – |
| COC(=O)[C@@H](C)N[P@@](=O)(OC[C@H]1OC(OC(=O)c2cccnc2)[C@H](O)[C@@H]1O)Oc1ccccc1 (single isomer, unassigned) [Compound 104] | statistically significant increase | statistically significant NAD^+ level increases | 100% | 78% | 65% | 45% | 24% | statistically significant NAD^+ level increases | medium clearance | 48.1 min | 14.4 µL/min/1e6 cells | statistically significant increase | medium clearance |
